From patent publication US20240124483A1, “Methods for the Treatment of Fibrotic Disease” (SHY Therapeutics, LLC, priority 2021, published 2024)
Like-named read-outs stand apart in the source and are kept apart here.

Experiments:
Smad2/3 phosphorylation = experiment: Phospho-Smad2/3 Inhibition Assay in Panc-1 (western blot); assay type: cell-based; conditions: Homo sapiens; 10 μM, 3 hours; PANC-1 stimulated with 10 ng/ml TGF-b1 for 1 hour; read-out: % inh of Smad2/3 phosphorylation in PANC-1
Method: Cell lines: Human tumor-derived pancreatic cancer cell line Panc-1 and mouse muscle myoblast C2C12 were purchased from American Type Culture Collection and grown in complete DMEM-High Glucose, supplemented with penicillin (100 U/mL), streptomycin (100 μg/mL), and 10% heat-inactivated FBS at 37° C. in a humidified incubator with 5% CO2.
Method: Cells were plated at 350000 cells/well density in a 12-well plate, allowed 3 hours to adhere to the plate, then starved in the appropriate medium in the presence of 0.5% FBS overnight. The small molecules to be tested were added to the cells in the final concentration of 10 μM in the presence of 0.3% DMSO for 3 hours incubation at 37° C. For IC50 value determination, serial dilutions of compounds were added to cells under the same conditions. Next, Panc-1 cells were stimulated with 10 ng/ml TGF-b1 for 1 hour, and C2C12 cells were stimulated with 10 ng/ml TGF-b1 for 20 minutes (recombinant human TGF-b1, R&D Systems). After stimulation cells were lysed with lysis buffer containing 1% Triton X-100, EDTA, and Halt™ Protease & Phosphatase Inhibitor Cocktail (Thermo Scientific). Protein concentration was assessed by BCA protein assay (Thermo Scientific). Phosphorylation level of Smad2/Smad3 was determined by western blot.
Western blot protocol: Equal amounts of protein (15-50 μg) were separated by SDS-PAGE and transferred to nitrocellulose membranes (Invitrogen by Thermo Fisher Scientific). The membrane was stained with Ponceau S Stain (Boston BioProducts) to verify uniform protein loading. Membranes were blocked with 10% milk and phosphorylation levels of Smad2/Smad3 were assessed by incubating overnight at 4° C. with the following antibodies: Phospho-Smad2 (Ser465/467) and Phosph-Smad3 (Ser423/425), both from Cell Signaling Technology. Then the membranes were incubated with HRP-conjugated secondary antibody (Jackson Immunoresearch, West Grove, PA). Bands were incubated in Amersham ECL Prime Western Blotting Detection Reagent (GE Healthcare) and visualized using the ChemiDoc MP imaging system (Bio-Rad).

MiaPaca2 = MiaPaca2 proliferation; assay type: cell-based; conditions: Homo sapiens, MIA PaCa-2; for inhibition at 10 µM: read-out: % inh of proliferation in MiaPaca2
KRas G12D mutant = KRas G12D mutant (Homo sapiens (Human), UniProt P01116, G12D); experiment: Ras GTP Binding Domain Inhibition Assay, KRas G12D mutant; conditions: for inhibition at 20 µM: Table 7; for KRas G12D mutant + SOS: % inh. / KRas G12D mutant: % inh.: 20 uM, Table 8
Method: (§1) A Ras Superfamily Activity Assay (as disclosed in International Application No. PCT/US2018/038613, filed Jun. 20, 2018, which is incorporated by reference in its entirety) was used as a specific assay to evaluate compounds against the following for the following Ras Superfamily proteins: KRas wild type, KRas Q61H mutant, KRas G12C mutant, KRas G12D mutant, Rac-1, and Rho-A.
(§2) Buffer-I: • 25 mM Tris-HCl, pH 7.4 • 27 mM KCl • 137 mM NaCl • 1 mM MgCl2 • 1 mM DTT
(§3) Buffer-II: • 50 mM Tris-HCl, pH 7.0 • 1 mM MgCl2 • 1 mM DTT
(§4) The small GTPases proteins: KRas wild type. KRas Q61H mutant, KRas G12C mutant, KRas G12D mutants, Rac-1, and Rho-A were expressed as His-tagged proteins. In addition, the Guanosine nucleotide Exchange Factor (GEF) Sos protein (residues 556-1049) was expressed as a His-tagged protein. In cells, the guanine nucleotide exchange factor Sos protein promotes activation of Ras proteins by stimulating an exchange of GDP for GTP. The inclusion of Sos to the Ras GTP binding domain inhibition assay may be considered as an alternative representation of physiological cellular conditions for evaluating the inhibitory activity of some of the tested small molecules.
(§5) For the assay, all purified small GTPases proteins were diluted in Buffer-I or Buffer-II to a final concentration of 10-30 μg/mL. 200 μL of each diluted protein was added to a nickel-coated 96-well plate and incubated overnight at 4° C. Then the protein solution was discarded and 200 μL of Buffer-I or Buffer-II was added to each well in the presence of 1% DMSO. Compounds to be tested were added to the protein-coated wells at final concentration of 20 μM, and incubated for 3 hours at room temperature with and without 10-30 μg/mL of Sos added to the final hour of the incubation. When performing IC50 measurements a serial dilution of all tested concentrations was added. Then Cy3-GTP or Cy5-GTP was added to each well to a final concentration of 100 nM. The labeled GTP was incubated for 45 minutes at room temperature. Following GTP incubation, wells were washed 3× in Buffer-I or Buffer-II and 200 μL of Buffer-I or Buffer-II was added to each well. Following washes, the amount of bound labeled-GTP was measured using a SpectraMax M3 (Molecular Devices).

KRas Q61H mutant = KRas Q61H mutant (Homo sapiens (Human), UniProt P01116, Q61H); experiment: Ras GTP Binding Domain Inhibition Assay, KRas Q61H mutant; conditions: 20 μM
Method: as §1, §2, §3, §4, §5

Rho-A = Rho-A (Homo sapiens (Human), UniProt P61586); experiment: Ras GTP Binding Domain Inhibition Assay, Rho-A; conditions: without SOS, read-out: Rho-A: % inh.
Method: as §1, §2, §3, §4, §5

[1] = + SOS, read-out: KRas G12D mutant + SOS: % inh.
[2] = without SOS, read-out: KRas G12D mutant: % inh.
[3] = + SOS, read-out: KRas Q61H mutant + SOS: % inh.
[4] = without SOS, read-out: KRas Q61H mutant: % inh.

Chain of KRas Q61H mutant (P01116 other isoform, or with tags, fused parts or gaps Q61H): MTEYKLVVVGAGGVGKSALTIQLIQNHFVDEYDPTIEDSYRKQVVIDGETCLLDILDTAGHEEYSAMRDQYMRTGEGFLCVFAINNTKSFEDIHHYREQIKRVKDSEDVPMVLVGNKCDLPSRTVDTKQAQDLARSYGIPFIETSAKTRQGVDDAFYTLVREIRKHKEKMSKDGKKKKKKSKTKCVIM
Chain of KRas G12D mutant (P01116 other isoform, or with tags, fused parts or gaps G12D): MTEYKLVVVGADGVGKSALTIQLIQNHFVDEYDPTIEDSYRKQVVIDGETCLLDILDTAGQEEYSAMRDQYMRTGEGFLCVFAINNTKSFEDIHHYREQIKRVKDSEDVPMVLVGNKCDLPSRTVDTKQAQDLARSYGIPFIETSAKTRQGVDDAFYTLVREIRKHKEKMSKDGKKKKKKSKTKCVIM
Chain of Rho-A (P61586 whole entry, species assumed, the tested form may be a part): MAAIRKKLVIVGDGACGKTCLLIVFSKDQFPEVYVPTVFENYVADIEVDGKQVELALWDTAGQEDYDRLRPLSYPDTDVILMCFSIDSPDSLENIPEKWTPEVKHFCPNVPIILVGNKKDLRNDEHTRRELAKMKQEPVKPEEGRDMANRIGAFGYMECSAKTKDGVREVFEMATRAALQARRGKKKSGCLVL

SMILES	IC50 (MiaPaca2) [µM]	inhibition at 20 µM (KRas G12D mutant; [1]) [%]	KRas G12D mutant + SOS: % inh. (KRas G12D mutant; + SOS)	inhibition at 20 µM (KRas G12D mutant; [2]) [%]	KRas G12D mutant: % inh. (KRas G12D mutant; without SOS)	inhibition at 20 µM (KRas Q61H mutant; [3]) [%]	inhibition at 20 µM (KRas Q61H mutant; [4]) [%]	inhibition at 20 µM (Rho-A) [%]	inhibition at 10 µM (Smad2/3 phosphorylation) [%]	inhibition at 10 µM (MiaPaca2) [%]
Cc1c(-c2ccn(C(C)C)n2)sc2nc(-c3nccn3C)nc(NCC3CCCO3)c12 (racemic) [Compound 26, rac-6-(1-Isopropyl-1H-pyrazol-3-yl)-5-methyl-2-(1-methyl-1H-imidazol-2-yl)-N-((tetrahydrofuran-2-yl)methyl)thieno[2,3-d]pyrimidin-4-amine]	> 10	46 to 75	C (C = 46-75% inhibition)	76 to 100	D (D = 76-100% inhibition)	76 to 100	76 to 100	76 to 100	0	46 to 75
COCCCn1c(-c2nccn2C)nc2sc(-c3ccn(C(C)C)n3)c(C)c2c1=O [Compound 31, 6-(1-Isopropyl-1H-pyrazol-3-yl)-3-(3-methoxypropyl)-5-methyl-2-(1-methyl-1H-imidazol-2-yl)thieno[2,3-d]pyrimidin-4(3H)-one]	> 10	0	0 (0 = 0% inhibition)	0	0 (0 = 0% inhibition)	0	0	0	0	0
COCCOc1nc(-c2nccn2C)nc2sc(-c3ccn(C(C)C)n3)c(C)c12 [Compound 30, 6-(1-Isopropyl-1H-pyrazol-3-yl)-4-(2-methoxyethoxy)-5-methyl-2-(1-methyl-1H-imidazol-2-yl)thieno[2,3-d]pyrimidine]	> 10	0	0 (0 = 0% inhibition)	0	0 (0 = 0% inhibition)	1 to 25	0	0	0	1 to 25
COc1cc(Cn2c(-c3nccn3C)nc3sc(-c4ccn(C(C)C)n4)c(C)c3c2=O)ncn1 [Compound 35, 6-(1-Isopropyl-1H-pyrazol-3-yl)-3-((6-methoxypyrimidin-4-yl)methyl)-5-methyl-2-(1-methyl-1H-imidazol-2-yl)thieno[2,3-d]pyrimidin-4(3H)-one]	> 10	0	0 (0 = 0% inhibition)	1 to 25	A (A = 1-25% inhibition)	1 to 25	1 to 25	0	0	0

Continued, in another order:

IC50 (MiaPaca2) [µM]	inhibition at 20 µM (KRas G12D mutant; [1]) [%]	KRas G12D mutant + SOS: % inh. (KRas G12D mutant; + SOS)	inhibition at 20 µM (KRas G12D mutant; [2]) [%]	KRas G12D mutant: % inh. (KRas G12D mutant; without SOS)	inhibition at 20 µM (KRas Q61H mutant; [3]) [%]	inhibition at 20 µM (KRas Q61H mutant; [4]) [%]	inhibition at 20 µM (Rho-A) [%]	SMILES	inhibition at 10 µM (Smad2/3 phosphorylation) [%]	inhibition at 10 µM (MiaPaca2) [%]
5 to 10	76 to 100	D (D = 76-100% inhibition)	1 to 25	A (A = 1-25% inhibition)	76 to 100	26 to 45	26 to 45	COc1cccc(-c2sc3nc(-c4nccn4C)nc(N[C@@H]4CC[C@@H](OC)C4)c3c2C)c1F (racemic) [Compound 43, rac-6-(2-Fluoro-3-methoxyphenyl)-N-((1R,3R)-3-methoxycyclopentyl)-5-methyl-2-(1-methyl-1H-imidazol-2-yl)thieno[2,3-d]pyrimidin-4-amine]	76 to 100	46 to 75
5 to 10	46 to 75	C (C = 46-75% inhibition)	46 to 75	C (C = 46-75% inhibition)	46 to 75	46 to 75	76 to 100	COCCCOc1nc(-c2nccn2C)nc2sc(-c3ccn(C(C)C)n3)c(C)c12 [Compound 32, 6-(1-Isopropyl-1H-pyrazol-3-yl)-4-(3-methoxypropoxy)-5-methyl-2-(1-methyl-1H-imidazol-2-yl)thieno[2,3-d]pyrimidine]	0	76 to 100
5 to 10	46 to 75	C (C = 46-75% inhibition)	76 to 100	D (D = 76-100% inhibition)	76 to 100	26 to 45	0	COc1cc(-c2sc3nc(-c4nccn4C)nc(N[C@@H]4CC[C@H](OC)C4)c3c2-c2ccccc2)ccn1 (racemic) [Compound 44, rac-N-((1R,3S)-3-Methoxycyclopentyl)-6-(2-methoxypyridin-4-yl)-2-(1-methyl-1H-imidazol-2-yl)-5-phenylthieno[2,3-d]pyrimidin-4-amine]	76 to 100	76 to 100
1 to 4.99	76 to 100	D (D = 76-100% inhibition)	46 to 75	C (C = 46-75% inhibition)	76 to 100	76 to 100	26 to 45	COc1cccc(-c2sc3nc(-c4nccn4C)nc(N[C@H]4C[C@H](OC)C4)c3c2-c2ccccc2)c1F [Compound 40, 6-(2-Fluoro-3-methoxyphenyl)-N-((1r,3r)-3-methoxycyclobutyl)-2-(1-methyl-1H-imidazol-2-yl)-5-phenylthieno[2,3-d]pyrimidin-4-amine]	76 to 100	76 to 100
